In patent US20240245677A1, “SELECTED COMPOUNDS FOR TARGETED DEGRADATION OF BRD9” (C4 THERAPEUTICS, INC., priority 2021, published 2024):

Experiments:
[1] = molecular target: hERG potassium channels (Homo sapiens, UniProt Q12809); test: cell-based
Method: The effects of Compound 1 on the hERG potassium channels were evaluated using the automated patch clamp method (SyncroPatch® 384PE, Nanion Technologies GmbH, Munich, Germany).
CHO cells stably expressing hERG potassium channels (Sophion Bioscience, Inc. Bedford, MA, USA) were used for this test. The cells were cultured in a humidified and air-controlled (5% CO2) incubator at 37° C. The CHO hERG cell culture medium was 500 mL Ham's F-12 medium (Catalog No. 31765035, Invitrogen, Waltham, MA, USA), 50 mL HyClone™ Fetal Bovine Serum (Catalog No. SV30087.03, Cytiva, Marlborough, MA, USA), 1 mL Geneticin™ (G418 Sulfate, 50 mg/mL)) (Catalog No. 10131027, Invitrogen, Waltham, MA, USA), and 1 mL Hygromycin B (50 mg/mL) (Catalog No. 10687010, Invitrogen, Waltham, MA, USA).
The CHO cells were at least two days after plating and more than 75% confluent were used. Before testing, cells were harvested using TrypLE™ and resuspended in the physiological solution at the room temperature.
The solutions in Table 9 were used for the electrophysiological recordings. The physiological solution and external solution were prepared at least one month prior to the experiment. The intracellular solution was prepared in batches, aliquoted, and stored at 4° C. until use.
The stock solutions were further diluted into external solution to achieve final concentrations for testing. A visual check for precipitation was conducted before testing. Final DMSO concentration in external solution was not more than 0.30% for the test compounds.
The voltage command protocol started from a holding potential of −80 mV. Then, the voltage was first stepped to −50 mV for 80 ms for leak subtraction, and then stepped to +20 mV for 4,800 ms to open hERG channels. After that, the voltage was stepped back down to −50 mV for 5,000 ms, causing a “rebound” or tail current, which was measured and collected for data analysis. Finally, the voltage was stepped back to the holding potential of −80 mV for 1,000 ms. This voltage command protocol was repeated every 20,000 msec, and performed continuously during the test of vehicle control and test compounds.
This SyncroPatch hERG assay was conducted at room temperature. The Setup, Prime Chip, Catch and Seal Cells, Amplifier Settings, Voltage and Application Protocols were established with […] (Nanion Technologies GmbH, Munich, Germany). One addition of 40 μL of vehicle was applied, followed by a baseline period of 300 s. Then 40 μL doses of test compounds were added. The exposure of test compound at each concentration was no less than 300 s. The recording for the whole process passed quality control or the well was abandoned and the compound was retested, all automatically set by PatchControl (Nanion Technologies, Munich, Germany). Five concentrations (0.30 μM, 1.00 μM, 3.00 μM, 10.00 μM and 30.00 μM) were tested for each compound. A minimum of 2 replicates per concentration were obtained.
Data analysis was carried out using DataControl® (Nanion Technologies GmbH, Munich, Germany), EXCEL 2013 (Microsoft Corporation, Redmond, WA, USA) and GraphPad Prism 5.0 (GraphPad Software, LLC, San Diego, CA, USA).
Within each recording well, percent of control values were calculated for each test compound concentration current response based on peak current in presence of reference control (current response/peak current)×100%. The Dose-Response curves were fit to the standard Hill equation as shown below: […]
where X is the logarithm of concentration, Ipost cpd/Ipre cpd is the normalized peak current amplitude, Top is 1, and Bottom is equal to 0. Curve-fitting and IC50 calculations were performed by GraphPad Prism 5.0.

[2] = Human Hepatocyte Stability Assay; type: in vitro ADME; details: cryopreserved hepatocytes
Method: (§1) The metabolic stability of Compound 1 was evaluated using cryopreserved hepatocytes from mice, rats, dogs, cynomolgus monkeys, and humans.
(§2) 50 μL of 1 mM intermediate solutions for each test compound was prepared by adding 5 μL of 10 mM stock solution to 45 μL of a 1:1 mixture of water and acetonitrile. A 2 μM working stocks for each test compound were prepared in incubation media, InvitroGRO™ KHB (Bio IVT, Westbury, NY, USA), by adding 2 μL of 1 mM intermediate stock to 998 μL of incubation media.
(§3) To thaw the hepatocytes, InvitroGRO™ HT thawing medium (BioIVT, Westbury, NY, USA) was prewarmed to 37° C., and 48 mL of warmed thawing medium was transferred to a sterile 50 mL conical tube. The hepatocyte vial was removed from the liquid nitrogen Dewar, and gently thawed in a water bath at 37° C. for 1-2 minutes, then the contents of the vial were emptied into a conical tube with prewarmed InvitroGRO HT medium. 1 mL of prewarmed InvitroGRO HT medium was added to each emptied hepatocyte vial to resuspend any remaining cells, and the contents were pipetted into the hepatocyte suspension. The tube containing the hepatocyte suspension was centrifuged at 50*g for 5 minutes. The supernatant was removed carefully, and the remaining pellet was resuspended by adding 1 mL of incubation media, InvitroGRO KHB, and gently shaking until there were no clumps.
(§4) Cell viability was determined using the trypan blue method. 25 μL of hepatocyte cell suspension was added to a trypan blue (TB) solution (containing 775 μL InvitroGRO KHB and 200 μL of Trypan Blue). Cell count was taken using a hemacytometer.
(§5) For mouse hepatocytes, 200 μL of hepatocytes (0.8×10^6 cells/mL) were added to the wells of a 48 well plate (Catalog No. 92048, TPP Techno Plastic Products AG, Trasadingen, Switzerland) and pre-incubated for 30 minutes at 37° C. For rat, dog, monkey, […], 200 μL of hepatocytes (2×10^6 cells/mL) were added to the wells of a 48 well plate (Catalog No. 92048, TPP Techno Plastic Products AG, Trasadingen, Switzerland) and pre-incubated for 30 minutes at 37° C.
(§6) For all species of hepatocytes, once the pre-incubation period was complete, 200 μL of 2 μM working stock of test compound was added to the wells of the plate, and the plate was vortexed on a Vibramax™ 100 (P/N 544-21200-00, Heidolph Instruments GmbH & Co. KG, Schwabach, Germany) at 500 rpm in a 37° C. CO2 incubator (Model No. 51026280, ThermoFisher Scientific, Waltham, MA, USA). At each time point of 0, 15, 30, 60, 90, and 120 minutes, 50 μL of incubation mixture was precipitated with 200 μL of acetonitrile containing internal standard.
(§7) At the end of the experiment, the samples were centrifuged at 4000 rpm for 10 minutes. […]

[3] = test system: cryopreserved human hepatocytes; test: Human Hepatocyte Stability Assay; type: in vitro ADME
Method: as §1, §2, §3, §4, §5, §6, §7

Sequence of hERG potassium channels (Q12809 whole entry): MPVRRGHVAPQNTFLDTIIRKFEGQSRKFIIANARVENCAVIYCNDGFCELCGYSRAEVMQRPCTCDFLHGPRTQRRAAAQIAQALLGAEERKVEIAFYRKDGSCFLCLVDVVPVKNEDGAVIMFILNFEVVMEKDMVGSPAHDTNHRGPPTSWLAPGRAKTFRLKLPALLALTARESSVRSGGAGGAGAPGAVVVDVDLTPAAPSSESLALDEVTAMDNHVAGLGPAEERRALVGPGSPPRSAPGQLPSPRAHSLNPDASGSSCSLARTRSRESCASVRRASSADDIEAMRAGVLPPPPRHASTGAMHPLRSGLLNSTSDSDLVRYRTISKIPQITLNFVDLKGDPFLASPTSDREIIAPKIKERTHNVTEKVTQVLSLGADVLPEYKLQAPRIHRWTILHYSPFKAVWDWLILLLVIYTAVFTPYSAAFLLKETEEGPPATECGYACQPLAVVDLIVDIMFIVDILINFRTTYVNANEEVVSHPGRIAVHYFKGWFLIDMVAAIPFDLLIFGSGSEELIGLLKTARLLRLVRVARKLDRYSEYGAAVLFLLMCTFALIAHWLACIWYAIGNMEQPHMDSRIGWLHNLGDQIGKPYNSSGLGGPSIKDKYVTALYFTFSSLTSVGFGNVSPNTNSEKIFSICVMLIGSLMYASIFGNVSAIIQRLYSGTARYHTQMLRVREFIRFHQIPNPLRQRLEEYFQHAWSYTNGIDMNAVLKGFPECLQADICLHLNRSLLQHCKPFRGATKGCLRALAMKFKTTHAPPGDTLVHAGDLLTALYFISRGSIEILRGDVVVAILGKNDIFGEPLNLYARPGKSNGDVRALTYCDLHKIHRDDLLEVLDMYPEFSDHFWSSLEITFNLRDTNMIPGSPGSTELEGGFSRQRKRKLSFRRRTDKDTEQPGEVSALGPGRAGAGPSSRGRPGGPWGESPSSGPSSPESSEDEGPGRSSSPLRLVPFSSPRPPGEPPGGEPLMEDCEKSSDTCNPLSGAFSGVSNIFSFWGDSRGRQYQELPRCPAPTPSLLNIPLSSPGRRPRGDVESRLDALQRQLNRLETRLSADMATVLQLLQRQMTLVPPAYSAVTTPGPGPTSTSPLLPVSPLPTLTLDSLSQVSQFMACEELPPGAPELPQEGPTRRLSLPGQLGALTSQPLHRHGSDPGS

For `COc1cc(-c2cn(C)c(=O)c(C)c2C)cc(OC)c1CN1CC[C@H](N2CCN(c3ccc(N[C@H]4CCC(=O)NC4=O)cc3F)CC2)C(F)(F)C1` [Compound 1, (S)-3-((4-(4-((S)-1-(2,6-dimethoxy-4-(1,4,5-trimethyl-6-oxo-1,6-dihydropyridin-3-yl)benzyl)-3,3-difluoropiperidin-4-yl)piperazin-1-yl)-3-fluorophenyl)amino)-piperidine-2,6-dione], the IC50 [1] was 2910 nM, the HillSlope ([1]; human) was 1.26 and the “POI (%)” value ([1]; human, 0.3 µM) was 12.42%. For the same molecule, the “POI (%)” value ([1]; human, 1 µM) was 14.61%, the “POI (%)” value ([1]; human, 3 µM) was 22.59% and the “POI (%)” value ([1]; human, 10 µM) was 19.49%. The “POI (%)” value ([1]; human, 30 µM) was 21.92%, the half-life at 1 µM [2] was > 2 h and the hepatocyte CLint at 1 µM ([2]; read-out: CL int cells) was 4.67 µL/min/1e6 cells. The CLint scaled at 1 µM ([2]; read-out: CL int in vivo) was 14.4 mL/min/kg and the “CLhb scaled well stirred” value [3] was 8.4 mL/min/kg body wt.
